MIC data for eight molecules are collected here from ChEMBL document CHEMBL1146040, “Lactones from a brown alga endophytic fungus (No. ZZF36) from the South China Sea and their antimicrobial activities” (2006).

One assay deals with Escherichia coli. Kind of assay: Antibacterial activity against Escherichia coli ATCC 25922. Type of assay: functional.
The next assay relates to Salmonella enteritidis. Kind of assay: Antibacterial activity against Salmonella enteritidis ATCC 13076. The class given is functional, Salmonella enterica subsp. enterica serovar Enteritidis. Particulars: Salmonella enterica.
The test system of the next assay is Bacillus subtilis. Kind of assay: Antibacterial activity against Bacillus subtilis ATCC 6633. Type of assay: functional.
A further assay has as its system Staphylococcus aureus. As to the kind of experiment: Antibacterial activity against Staphylococcus aureus ATCC 27154. Type of assay: functional.
Another assay relates to Candida albicans. As to the kind of experiment: Antifungal activity against Candida albicans ATCC 10231. Type of assay: functional.
For a further assay, the system named is Fusarium oxysporum. As to the kind of experiment: Antifungal activity against Fusarium oxysporum f.sp.cubense. The class given is functional.

≈ marks a conversion by molar mass, not a printed value. Some results are limits rather than exact numbers.

One may read the MIC as the least concentration at which growth counts as inhibited. The low end stands for a more susceptible organism, the high end for a less susceptible organism.

Turning to `CC1(C)S[C@@H]2[C@H](NC(=O)[C@H](N)c3ccccc3)C(=O)N2[C@H]1C(=O)O` [AMPICILLIN], the MIC in the assay on Escherichia coli is 6.25 µg/mL (≈ 17.9 µM); in the assay on Salmonella enteritidis, 50 µg/mL (≈ 143 µM); against Bacillus subtilis it was 100 µg/mL (≈ 286 µM); against Staphylococcus aureus, above 100 µg/mL.
For `CC1CCC(=O)CCCCc2cc(O)cc(O)c2C(=O)O1` (configuration not stated), the MIC in the assay on Escherichia coli, in the assay on Salmonella enteritidis, against Bacillus subtilis, against Candida albicans, in the assay with Fusarium oxysporum and with Staphylococcus aureus was above 100 µg/mL each time.
As for `COc1c(Br)c(O)c(Br)c2c1C(=O)OC(C)CCCCCCC2` (configuration not stated), the MIC in the assay with Escherichia coli is above 100 µg/mL; in the assay on Salmonella enteritidis, above 100 µg/mL; in the assay on Bacillus subtilis, 6.25 µg/mL (≈ 13.9 µM); in the assay with Candida albicans, above 100 µg/mL; in the assay with Fusarium oxysporum, 12.5 µg/mL (≈ 27.8 µM); in the assay with Staphylococcus aureus, above 100 µg/mL.
Take `CC1CC(O)CCCCCc2cc(O)cc(O)c2C(=O)O1` (configuration not stated): the MIC with Escherichia coli was above 100 µg/mL; in the assay with Salmonella enteritidis, above 100 µg/mL; against Bacillus subtilis, above 100 µg/mL; in the assay with Candida albicans it was above 100 µg/mL; with Fusarium oxysporum, above 100 µg/mL; against Staphylococcus aureus, 100 µg/mL (≈ 340 µM).
For NYSTATIN, the minimum inhibitory concentration (MIC) worked out at 1.56 µg/mL in the assay on Candida albicans and 3.12 µg/mL with Fusarium oxysporum.
As to `CC1CCCCCCCc2cc(O)cc(O)c2C(=O)O1` (configuration not stated), the minimum inhibitory concentration (MIC) in the assay on Escherichia coli is above 100 µg/mL; against Salmonella enteritidis it was 12.5 µg/mL (≈ 44.9 µM); in the assay on Bacillus subtilis, 12.5 µg/mL (≈ 44.9 µM); in the assay with Candida albicans, 100 µg/mL (≈ 359 µM); with Fusarium oxysporum, 50 µg/mL (≈ 180 µM); in the assay on Staphylococcus aureus it was 6.25 µg/mL (≈ 22.5 µM).
On to `COc1cc(O)cc2c1C(=O)O[C@@H](C)CCCCCCC2` [LASIODIPLODIN], for which the MIC with Escherichia coli is above 100 µg/mL; against Salmonella enteritidis, above 100 µg/mL; against Bacillus subtilis, 50 µg/mL (≈ 171 µM); with Candida albicans, above 100 µg/mL; with Fusarium oxysporum, 100 µg/mL (≈ 342 µM); with Staphylococcus aureus, 25 µg/mL (≈ 85.5 µM).
As to `COc1cc(OC(C)=O)cc2c1C(=O)OC(C)CCCCCCC2` (configuration not stated), the minimal inhibitory concentration (MIC) with Escherichia coli, against Salmonella enteritidis, in the assay on Bacillus subtilis, in the assay with Candida albicans, against Fusarium oxysporum and in the assay with Staphylococcus aureus was above 100 µg/mL in each case.
